Laboratory results taken from patent publication EP0371733A2, “Dopamine-beta-hydroxylase inhibitors” (SMITHKLINE BEECHAM CORPORATION, priority 1988, dated 1990).

Key:
[1] = target: T1, DBH (Homo sapiens, UniProt P09172); assay: in vitro DBH inhibition, conversion of tyramine to octopamine in the presence of DBH; type: biochemical; conditions: concentration at which DBH activity was halved; octopamine assayed by absorbence at 330 nm; read-out: DBH IC₅₀
T1 sequence (P09172 1-617): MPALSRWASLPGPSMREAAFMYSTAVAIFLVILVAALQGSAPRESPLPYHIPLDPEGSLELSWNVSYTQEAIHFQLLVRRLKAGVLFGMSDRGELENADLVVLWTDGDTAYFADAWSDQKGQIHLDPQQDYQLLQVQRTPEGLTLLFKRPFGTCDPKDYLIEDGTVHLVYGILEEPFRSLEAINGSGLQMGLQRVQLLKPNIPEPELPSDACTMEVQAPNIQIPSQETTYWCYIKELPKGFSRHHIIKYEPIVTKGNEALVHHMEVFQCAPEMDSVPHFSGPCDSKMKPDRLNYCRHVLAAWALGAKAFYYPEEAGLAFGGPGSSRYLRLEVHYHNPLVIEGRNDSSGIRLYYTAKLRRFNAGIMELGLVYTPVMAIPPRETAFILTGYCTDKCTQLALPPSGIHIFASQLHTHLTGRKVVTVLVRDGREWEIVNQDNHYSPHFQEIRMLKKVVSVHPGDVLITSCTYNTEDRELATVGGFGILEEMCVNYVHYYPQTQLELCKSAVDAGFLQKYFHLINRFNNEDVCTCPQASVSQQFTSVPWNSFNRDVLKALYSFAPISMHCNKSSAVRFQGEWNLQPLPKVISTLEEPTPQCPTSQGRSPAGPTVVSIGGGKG
Experimental: Listed in Table I are compounds of the invention that were tested for in vitro DBH inhibition by a standard procedure for assaying conversion of tyramine to octopamine in the presence of DBH. J.J. Pisano, et al., Biochim. Biophys. Acta, 43, 566-568 (1960). Octopamine was assayed following sodium periodate oxidation to p-hydroxybenzaldehyde by measuring spectrophotometric absorbence at 330 nm. In Table I, inhibition is given in molar concentration of compound at which DBH activity was halved (IC₅₀). Fusaric acid, by this test has an IC₅₀ of 8 x 10⁻⁷M.

[2] = test system: spontaneously hypertensive rats; assay: mean arterial blood pressure in spontaneously hypertensive rats; type: in vivo; conditions: 50 mg/kg intraperitoneally, vs vehicle-treated controls
Experimental: Further, spontaneously hypertensive rats were treated with 3-(3-fluorophenylmethyl)-2-thiazolidinethione at a dose of 50 mg/kg intraperitoneally, and mean arterial blood pressure was monitored for 250 minutes using indwelling cannulae in the tail arteries. […] The maximal blood pressure reduction was approximately 20 mmHg.

[3] = in vitro screen; Weiffen et al., 1967; cited from earlier work
[4] = Teresawa et al., 1971; cited from earlier work
[5] = target: T1, DBH; conditions: Runti et al., 1980; cited from earlier work

In the case of `Fc1cc(F)cc(CN2CCSC2=S)c1` [3-(3,5-Difluorophenylmethyl)-2-thiazolidinethione], the IC50 [1] is reported as 13 ± 1 µM.
With `Fc1cccc(CN2CCSC2=S)c1` [3-(3-Fluorophenylmethyl)-2-thiazolidinethione] the IC50 [1] was 30 ± 3 µM, the “maximal blood pressure reduction” value ([2]; mean arterial blood pressure monitored for 250 minutes) was “approximately 20 mmHg” and the “time to significant blood pressure reductions following treatment” value [2] was ≤ 30 min.
For `S=C1SCCN1Cc1ccccc1` [3-Phenylmethyl-2-thiazolidinethione], the IC50 [1] is given as 72 ± 13 µM and the tuberculostatic activity [3] is given as “poor activity”.
In the case of `S=C1SCCN1CCc1ccccc1` [3-phenethylthiazolidinethione, reference compound], the tuberculostatic activity [3] is given as “poor activity”.
In the case of `CCCCc1ccc(C(=O)O)nc1` [Fusaric acid], the toxic effects [4] is given as “hepatotoxic”.
In the case of phenylpicolinic acid, the “inhibitory activity relative to fusaric acid” value [5] is listed as “twice the inhibitory activity of fusaric acid”.
